Assay results from PubChem BioAssay AID1963835 (Molecular Pharmacology Branch, DTP, NCI, 2024).

Test system: 699152-130-R-J1-PDC complex spheroid viability
Assay: Anticancer human tumor 699152-130-R-J1-PDC patient-derived pancreatic carcinoma cell line growth inhibition [POLQ]
Details: for IC50: curve of first compound; for viability, T/C: stronger effect = lower value
Summary of the method: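 Three-cell-type spheroids modelling solid tumor plus stroma served as the readout system; POL inhibitors were tested individually and in combination, concentration ranges set by clinical Cmax where known.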

[1] = second compound 0.0316 µM, first compound 0.0316 µM
[2] = second compound 0.0316 µM, first compound 0.1 µM
[3] = second compound 0.0316 µM, first compound 0.316 µM
[4] = second compound 0.0316 µM, first compound 1 µM
[5] = second compound 0.0316 µM, first compound 3.16 µM
[6] = second compound 0.0316 µM, first compound 10 µM
[7] = second compound 0.1 µM, first compound 0.0316 µM
[8] = second compound 0.1 µM, first compound 0.1 µM
[9] = second compound 0.1 µM, first compound 0.316 µM
[10] = second compound 0.1 µM, first compound 1 µM
[11] = second compound 0.1 µM, first compound 3.16 µM
[12] = second compound 0.1 µM, first compound 10 µM
[13] = second compound 0.316 µM, first compound 0.0316 µM
[14] = second compound 0.316 µM, first compound 0.1 µM
[15] = second compound 0.316 µM, first compound 0.316 µM
[16] = second compound 0.316 µM, first compound 1 µM
[17] = second compound 0.316 µM, first compound 3.16 µM
[18] = second compound 0.316 µM, first compound 10 µM
[19] = second compound 1 µM, first compound 0.0316 µM
[20] = second compound 1 µM, first compound 0.1 µM
[21] = second compound 1 µM, first compound 0.316 µM
[22] = second compound 1 µM, first compound 1 µM
[23] = second compound 1 µM, first compound 3.16 µM
[24] = second compound 1 µM, first compound 10 µM
[25] = second compound 3.16 µM, first compound 0.0316 µM
[26] = second compound 3.16 µM, first compound 0.1 µM
[27] = second compound 3.16 µM, first compound 0.316 µM
[28] = second compound 3.16 µM, first compound 1 µM
[29] = second compound 3.16 µM, first compound 3.16 µM
[30] = second compound 3.16 µM, first compound 10 µM
[31] = second compound 10 µM, first compound 0.0316 µM
[32] = second compound 10 µM, first compound 0.1 µM
[33] = second compound 10 µM, first compound 0.316 µM
[34] = second compound 10 µM, first compound 1 µM
[35] = second compound 10 µM, first compound 3.16 µM
[36] = second compound 10 µM, first compound 10 µM
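Note: spheroids exposed to agents for 7 days before viability reading.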
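Throughout, for viability, T/C: percent of DMSO vehicle control viability so 100% = vehicle and 0% = no viable signal.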

COc1cccc2c1C(=O)c1c(O)c3c(c(O)c1C2=O)CC(O)(C(=O)CO)CC3OC1CC(N)C(O)C(C)O1 (stereo not given) + Cc1cccc(N(C)C(=O)C2C(O)CCN2c2nc(C)cc(C(F)(F)F)c2C#N)c1
IC50 (second compound 0.0316 µM): 0.222 µM | IC50 (second compound 0.1 µM): 0.244 µM | IC50 (second compound 0.316 µM): 0.279 µM | IC50 (second compound 1 µM): 0.276 µM | IC50 (second compound 3.16 µM): 0.275 µM | IC50 (second compound 10 µM): 0.257 µM | viability, T/C [1]: 102% | viability, T/C [2]: 59% | viability, T/C [3]: 47.5% | viability, T/C [4]: 34% | viability, T/C [5]: 3.59% | viability, T/C [6]: 10.4% | viability, T/C [7]: 81.1% | viability, T/C [8]: 61.3% | viability, T/C [9]: 47% | viability, T/C [10]: 31.3% | viability, T/C [11]: 3.36% | viability, T/C [12]: 8.95% | viability, T/C [13]: 85.7% | viability, T/C [14]: 66% | viability, T/C [15]: 49.5% | viability, T/C [16]: 29.6% | viability, T/C [17]: 3.68% | viability, T/C [18]: 10.9% | viability, T/C [19]: 81.9% | viability, T/C [20]: 68.5% | viability, T/C [21]: 46.8% | viability, T/C [22]: 28.7% | viability, T/C [23]: 4.78% | viability, T/C [24]: 12.1% | viability, T/C [25]: 85% | viability, T/C [26]: 60.7% | viability, T/C [27]: 55.2% | viability, T/C [28]: 20% | viability, T/C [29]: 6.82% | viability, T/C [30]: 10.3% | viability, T/C [31]: 84.4% | viability, T/C [32]: 60.2% | viability, T/C [33]: 53.2% | viability, T/C [34]: 12% | viability, T/C [35]: 7.55% | viability, T/C [36]: 10.8%

CC1COCCN1c1cc(C2(S(C)(=N)=O)CC2)nc(-c2ccnc3[nH]ccc23)n1 (stereo not given) + Nc1ccc(C#CCN(C(=O)Cc2ncc(C(F)(F)F)cc2C(F)(F)F)c2ccc(F)cc2)nn1
IC50 (second compound 0.0316 µM): > 10 µM | IC50 (second compound 0.1 µM): > 10 µM | IC50 (second compound 0.316 µM): > 10 µM | IC50 (second compound 1 µM): > 10 µM | IC50 (second compound 3.16 µM): > 10 µM | IC50 (second compound 10 µM): > 10 µM | viability, T/C [1]: 109% | viability, T/C [2]: 100% | viability, T/C [3]: 89.4% | viability, T/C [4]: 88.7% | viability, T/C [5]: 75.8% | viability, T/C [6]: 68.9% | viability, T/C [7]: 106% | viability, T/C [8]: 92.7% | viability, T/C [9]: 96.6% | viability, T/C [10]: 97.6% | viability, T/C [11]: 76.2% | viability, T/C [12]: 62.3% | viability, T/C [13]: 104% | viability, T/C [14]: 113% | viability, T/C [15]: 110% | viability, T/C [16]: 94.4% | viability, T/C [17]: 80.1% | viability, T/C [18]: 68.9% | viability, T/C [19]: 114% | viability, T/C [20]: 96.1% | viability, T/C [21]: 99.9% | viability, T/C [22]: 86% | viability, T/C [23]: 74.7% | viability, T/C [24]: 66.1% | viability, T/C [25]: 108% | viability, T/C [26]: 93.4% | viability, T/C [27]: 123% | viability, T/C [28]: 113% | viability, T/C [29]: 88.1% | viability, T/C [30]: 76.6% | viability, T/C [31]: 110% | viability, T/C [32]: 105% | viability, T/C [33]: 106% | viability, T/C [34]: 95.5% | viability, T/C [35]: 82.6% | viability, T/C [36]: 77.2%

CNCc1ccc(-c2[nH]c3cc(F)cc4c3c2CCNC4=O)cc1 + Cc1cccc(N(C)C(=O)C2C(O)CCN2c2nc(C)cc(C(F)(F)F)c2C#N)c1
IC50 (second compound 0.0316 µM): > 10 µM | IC50 (second compound 0.1 µM): > 10 µM | IC50 (second compound 0.316 µM): > 10 µM | IC50 (second compound 1 µM): > 10 µM | IC50 (second compound 3.16 µM): > 10 µM | IC50 (second compound 10 µM): > 10 µM | viability, T/C [1]: 95.5% | viability, T/C [2]: 88.8% | viability, T/C [3]: 101% | viability, T/C [4]: 95.3% | viability, T/C [5]: 113% | viability, T/C [6]: 126% | viability, T/C [7]: 88.8% | viability, T/C [8]: 106% | viability, T/C [9]: 92.2% | viability, T/C [10]: 103% | viability, T/C [11]: 105% | viability, T/C [12]: 119% | viability, T/C [13]: 95.5% | viability, T/C [14]: 94.2% | viability, T/C [15]: 96.6% | viability, T/C [16]: 111% | viability, T/C [17]: 123% | viability, T/C [18]: 114% | viability, T/C [19]: 92.7% | viability, T/C [20]: 86.9% | viability, T/C [21]: 88.9% | viability, T/C [22]: 94.8% | viability, T/C [23]: 99.4% | viability, T/C [24]: 127% | viability, T/C [25]: 101% | viability, T/C [26]: 87.7% | viability, T/C [27]: 96.6% | viability, T/C [28]: 98.1% | viability, T/C [29]: 115% | viability, T/C [30]: 122% | viability, T/C [31]: 99.2% | viability, T/C [32]: 101% | viability, T/C [33]: 105% | viability, T/C [34]: 97.9% | viability, T/C [35]: 109% | viability, T/C [36]: 116%

O=C(Nc1ccc(O)c(NS(=O)(=O)c2ccc(F)cc2)c1)c1ccc(-c2ccccc2)cc1 + Cc1cccc(N(C)C(=O)C2C(O)CCN2c2nc(C)cc(C(F)(F)F)c2C#N)c1
IC50 (second compound 0.0316 µM): > 10 µM | IC50 (second compound 0.1 µM): > 10 µM | IC50 (second compound 0.316 µM): > 10 µM | IC50 (second compound 1 µM): > 10 µM | IC50 (second compound 3.16 µM): > 10 µM | IC50 (second compound 10 µM): > 10 µM | viability, T/C [1]: 107% | viability, T/C [2]: 91.1% | viability, T/C [3]: 95.9% | viability, T/C [4]: 102% | viability, T/C [5]: 108% | viability, T/C [6]: 78% | viability, T/C [7]: 110% | viability, T/C [8]: 103% | viability, T/C [9]: 100% | viability, T/C [10]: 106% | viability, T/C [11]: 101% | viability, T/C [12]: 78.7% | viability, T/C [13]: 111% | viability, T/C [14]: 104% | viability, T/C [15]: 114% | viability, T/C [16]: 105% | viability, T/C [17]: 98.4% | viability, T/C [18]: 69.3% | viability, T/C [19]: 103% | viability, T/C [20]: 110% | viability, T/C [21]: 111% | viability, T/C [22]: 97% | viability, T/C [23]: 107% | viability, T/C [24]: 83.3% | viability, T/C [25]: 107% | viability, T/C [26]: 112% | viability, T/C [27]: 111% | viability, T/C [28]: 102% | viability, T/C [29]: 114% | viability, T/C [30]: 81.2% | viability, T/C [31]: 89.1% | viability, T/C [32]: 96% | viability, T/C [33]: 103% | viability, T/C [34]: 95.1% | viability, T/C [35]: 97% | viability, T/C [36]: 63.7%

CC(C)n1c(=O)n(C)c2cnc3cc(F)c(-c4ccc(OCCCN5CCCCC5)nc4)cc3c21 + Cc1cccc(N(C)C(=O)C2C(O)CCN2c2nc(C)cc(C(F)(F)F)c2C#N)c1
IC50 (second compound 0.0316 µM): > 10 µM | IC50 (second compound 0.1 µM): > 10 µM | IC50 (second compound 0.316 µM): > 10 µM | IC50 (second compound 1 µM): > 10 µM | IC50 (second compound 3.16 µM): > 10 µM | IC50 (second compound 10 µM): > 10 µM | viability, T/C [1]: 94.9% | viability, T/C [2]: 98.5% | viability, T/C [3]: 100% | viability, T/C [4]: 110% | viability, T/C [5]: 107% | viability, T/C [6]: 83.2% | viability, T/C [7]: 97.3% | viability, T/C [8]: 101% | viability, T/C [9]: 112% | viability, T/C [10]: 109% | viability, T/C [11]: 104% | viability, T/C [12]: 98.3% | viability, T/C [13]: 111% | viability, T/C [14]: 94.2% | viability, T/C [15]: 104% | viability, T/C [16]: 118% | viability, T/C [17]: 114% | viability, T/C [18]: 94.8% | viability, T/C [19]: 113% | viability, T/C [20]: 116% | viability, T/C [21]: 98.7% | viability, T/C [22]: 121% | viability, T/C [23]: 113% | viability, T/C [24]: 87.3% | viability, T/C [25]: 104% | viability, T/C [26]: 116% | viability, T/C [27]: 103% | viability, T/C [28]: 104% | viability, T/C [29]: 112% | viability, T/C [30]: 78.7% | viability, T/C [31]: 98.1% | viability, T/C [32]: 84.4% | viability, T/C [33]: 123% | viability, T/C [34]: 111% | viability, T/C [35]: 106% | viability, T/C [36]: 84.7%
